From US12606568B2, “SMARCA degraders and uses thereof” (Kymera Therapeutics, Inc., priority 2020, dated 2026)

Tests used:
Format in all cases: cell-based
SMARCA2 [1] = target: T1, SMARCA2 (Homo sapiens, UniProt P51531); assay: MSD SMARCA2 degradation in A549 cell line; parameters: endogenous in cells; settings: 24 h; for DC50: A549 cells, read-out: SMARCA2 MSD A549 degradation 24 h: Average external-Abs DC50; for Dmax: A549, A549 cells
Experimental: Example 53. MSD SMARCA2 Degradation in A549 Cell Line
Cells were seeded into 96-well plates (A549 cells: 2×10^4 cells/well/100 ul media) abd incubated overnight. The next day, 200 nl compound were added into the intermediate plate with Echo (Labcyte 550) from source plate containing a 3-fold serial dilution from top concentration of 1 mM. The culture medium was changed with 80 ul of fresh medium and 80 ul of 2× compound solution was added into the well to make a final concentration of 1000 nM, 333.3 nM, 111.1 nM, 37.04 nM, 12.35 nM, 4.115 nM, 1.372 nM, 0.457 nM, 0.152 nM and 0 nM (DMSO). The wells were mixed and then incubated for 24 hours. The media was aspirated from the cultures and 60 ul pre-chilled PIPA lysis buffer (Boston BioProducts BP-115D) with protease/phosphatase inhibitor (Roche 05892791001/Roche 04906837001) was added into the well to lyze the cells for 20 minutes at 4° C. The MSD plate (L15XA) was coated with 40 ul cell lysate and incubated at 4° C. overnight. The next day, the plate was washed three times with TBST (CST #9997S), 150 ul/well. The MSD plates was blocked with 150 ul blocking buffer per well and shaked for 1 hr at R^†, 600 rpm. The blocking buffer was 3% Blocker A (MSD, R93BA-4) in TBST. The MSD plate was washed three times with 150 ul/well of TBST and 25 ul/well of detection antibody (Rabbit anti-SMARCA2/BRM antibody, 100 μg/ml, ab223735) was added at final concentration of 1 ug/mi diluted in 1% o Blocking buffer and shaken for 1 hour at R^†, 600 rpm. The MSD plate was washed three times with 150 ul/well of TBST and 25 ul/well of SULFO-TAG anti-rabbit antibody (MSD, R32AB-1) was added at final concentration of 1 μg/ml diluted in […] Blocking buffer and shaken for 1 hour at R^†, 600 rpm. The MSD plate was washed three times with 150 ul/well of TBST and 150 ul/well of 2×MSD reading buffer diluted from 4× (MSD, R92TC-2) with water was added. Lastly, the MSD instrument was read.
(§1) The letter codes for SMARCA2 degradation potency (DC50) include: A (<100 nM), B (100-500 nM), C (501-1000 nM), and D (>1000 nM). The letter codes for the percentage of SMARCA2 degradation after 24 hours (Dmax % o) include: A (>90% o degradation), B (>70-90% o degradation), C (50-70% o degradation), and D (<50% degradation).

SMARCA4 = target: T2, SMARCA4 (Homo sapiens, UniProt P51532); assay: SMARCA4 Western blot MV4-11 degradation; settings: MV4-11 cells, 24 h; read-out: SMARCA4 MSD MV411 degradation 24 h: Mean external-Abs DC50
T2 construct: SMARCA2 and SMARCA4 protein degradation in MV4-11 cells; endogenous in cells; host or cells: MV4-11
Experimental: (§2) Example 54. SMARCA2 and SMARCA 4 Western Blot MV4-11 Degradation
(§3) Cells were seeded into 6-well plates (MV4-11: 4×10^6 cells/well/1 ml) and 1 ml of 2× compound solution was added into the well to make the final concentration and the plates were mixed well and incubated for 24 hours (No cytotoxicity was observed). The cell were collected with media and spun at 3000 rpm for 5 minutes. The supernatant was aspirated and the well and the cells were washed with cold PBS once and combined for centrifugation again; the supernatant aspirated again. 200 ul pre-chilled RIPA lysis buffer (Boston BioProducts BP-115D) with protease/phosphatase inhibitor (Roche 05892791001/Roche 04906837001) was directly added into the tube to lyze the cells for 20 minutes on ice. The cell lysate were collected into EP tubes and spun at 13000 rpm for 20 minutes and 72 ul supernatant was transferred to a fresh EP tube containing 18 ul of 5× loading buffer (Beyotime Bio P0015) to make the loading samples. The samples were heated to 100° C. for 10 minutes and cooled to RT and microcentrifuged. 20 ul of samples were loaded onto SDS-PAGE gel (Novex, WG1402BOX) and the gel was run at 80 V for 20 minutes and 120 V for 1.5 hours. The samples were electrotransfer to a NC membrane using wet-transfer method with 250 mA for 2.5 hours. The membrane was blocked with LICOR blocking buffer (LI-COR, 927-50000) for 1 hour. The membrane was washed three times with TBST (CST #9997S), 5 minutes each. Incubation was performed with primary antibody prepared in blocking buffer with 0.1% Tween-20 (Solarbio, P8220) at 4° C. overnight (Anti-SMARCA2/BRM antibody (ab15597) 1:500; Anti-BRG1 antibody [EPR3912] (ab108318) 1:1000; Rabbit anti-Baf180 antibody [EPR15860] (Abcam, ab196022) 1:1000; mouse anti-beta-Actin (8H10D10) (CST #3700) 1:10000). The membrane was washed three times with TBST, 5 minutes each. Incubation with secondary antibody was performed for 1 hour at RT (anti-rabbit IgG (Licor, 926-32211) 1:5000; anti-mouse IgG (LI-COR, 926-68070) 1:5000). The membrane was washed three times with TBST, 5 minutes each and lastly the LiCOR was read.
as §1, with “SMARCA” for “SMARCA2”, “%)” for “% o)”, “(>90%” for “(>90% o”, “(>70-90%” for “(>70-90% o”, “(50-70%” for “(50-70% o”

SMARCA2 [2] = target: T1, SMARCA2; assay: SMARCA2 Western blot MV4-11 degradation; parameters: SMARCA2 and SMARCA4 protein degradation in MV4-11 cells; endogenous in cells; host or cells: MV4-11; settings: 24 h; for DC50: MV4-11 cells, read-out: SMARCA2 MSD MV411 degradation 24 h: Mean external-Abs DC50; for Dmax: MV4-11, MV4-11 cells, read-out: SMARCA2 MSD MV411 degradation 24 h: average Dmax %
Experimental: as §2, §3
as §1, with “SMARCA” for “SMARCA2”, “%)” for “% o)”, “(>90%” for “(>90% o”, “(>70-90%” for “(>70-90% o”, “(50-70%” for “(50-70% o”

T2 sequence (P51532 whole entry): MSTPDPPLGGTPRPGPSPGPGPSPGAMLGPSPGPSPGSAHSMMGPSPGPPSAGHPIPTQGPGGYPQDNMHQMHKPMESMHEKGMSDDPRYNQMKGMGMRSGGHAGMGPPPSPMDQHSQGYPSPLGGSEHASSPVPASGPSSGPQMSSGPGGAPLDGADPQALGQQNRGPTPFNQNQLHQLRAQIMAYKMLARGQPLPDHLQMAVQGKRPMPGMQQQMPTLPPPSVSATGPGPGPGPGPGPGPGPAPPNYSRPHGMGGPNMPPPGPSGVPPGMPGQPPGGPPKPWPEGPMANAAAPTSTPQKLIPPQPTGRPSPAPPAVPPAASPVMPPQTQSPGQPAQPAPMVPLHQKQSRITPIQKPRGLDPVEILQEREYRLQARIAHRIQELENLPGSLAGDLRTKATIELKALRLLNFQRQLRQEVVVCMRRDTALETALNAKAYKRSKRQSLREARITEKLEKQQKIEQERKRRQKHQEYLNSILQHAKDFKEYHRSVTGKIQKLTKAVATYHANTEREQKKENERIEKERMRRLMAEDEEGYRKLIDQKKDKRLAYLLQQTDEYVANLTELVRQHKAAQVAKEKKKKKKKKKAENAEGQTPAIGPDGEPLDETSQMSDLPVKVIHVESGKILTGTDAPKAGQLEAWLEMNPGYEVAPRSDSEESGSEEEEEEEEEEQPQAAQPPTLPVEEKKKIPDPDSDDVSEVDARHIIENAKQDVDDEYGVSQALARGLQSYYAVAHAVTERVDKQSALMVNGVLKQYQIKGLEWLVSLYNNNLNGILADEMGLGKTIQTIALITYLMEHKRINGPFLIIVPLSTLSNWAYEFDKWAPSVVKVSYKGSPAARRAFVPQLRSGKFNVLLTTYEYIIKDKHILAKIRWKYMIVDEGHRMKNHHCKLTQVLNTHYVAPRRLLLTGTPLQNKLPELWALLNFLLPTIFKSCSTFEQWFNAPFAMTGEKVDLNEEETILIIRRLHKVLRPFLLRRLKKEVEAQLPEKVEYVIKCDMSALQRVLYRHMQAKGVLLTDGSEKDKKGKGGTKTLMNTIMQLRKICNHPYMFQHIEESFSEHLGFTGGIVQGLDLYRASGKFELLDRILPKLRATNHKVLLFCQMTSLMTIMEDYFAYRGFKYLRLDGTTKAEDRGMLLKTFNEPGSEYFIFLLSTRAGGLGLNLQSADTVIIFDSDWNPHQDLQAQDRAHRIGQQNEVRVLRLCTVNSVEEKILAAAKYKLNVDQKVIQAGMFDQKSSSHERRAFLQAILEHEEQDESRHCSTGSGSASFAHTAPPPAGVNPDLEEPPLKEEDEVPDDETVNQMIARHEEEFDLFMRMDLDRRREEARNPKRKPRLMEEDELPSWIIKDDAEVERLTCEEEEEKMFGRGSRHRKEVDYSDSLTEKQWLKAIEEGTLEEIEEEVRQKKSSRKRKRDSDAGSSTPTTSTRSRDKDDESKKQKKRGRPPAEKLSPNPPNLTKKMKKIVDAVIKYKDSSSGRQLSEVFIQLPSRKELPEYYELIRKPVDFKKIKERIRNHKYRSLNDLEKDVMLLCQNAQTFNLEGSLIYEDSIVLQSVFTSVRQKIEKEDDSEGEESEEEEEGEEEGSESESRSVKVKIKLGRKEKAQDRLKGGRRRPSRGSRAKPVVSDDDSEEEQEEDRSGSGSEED
T1 sequence (P51531 whole entry): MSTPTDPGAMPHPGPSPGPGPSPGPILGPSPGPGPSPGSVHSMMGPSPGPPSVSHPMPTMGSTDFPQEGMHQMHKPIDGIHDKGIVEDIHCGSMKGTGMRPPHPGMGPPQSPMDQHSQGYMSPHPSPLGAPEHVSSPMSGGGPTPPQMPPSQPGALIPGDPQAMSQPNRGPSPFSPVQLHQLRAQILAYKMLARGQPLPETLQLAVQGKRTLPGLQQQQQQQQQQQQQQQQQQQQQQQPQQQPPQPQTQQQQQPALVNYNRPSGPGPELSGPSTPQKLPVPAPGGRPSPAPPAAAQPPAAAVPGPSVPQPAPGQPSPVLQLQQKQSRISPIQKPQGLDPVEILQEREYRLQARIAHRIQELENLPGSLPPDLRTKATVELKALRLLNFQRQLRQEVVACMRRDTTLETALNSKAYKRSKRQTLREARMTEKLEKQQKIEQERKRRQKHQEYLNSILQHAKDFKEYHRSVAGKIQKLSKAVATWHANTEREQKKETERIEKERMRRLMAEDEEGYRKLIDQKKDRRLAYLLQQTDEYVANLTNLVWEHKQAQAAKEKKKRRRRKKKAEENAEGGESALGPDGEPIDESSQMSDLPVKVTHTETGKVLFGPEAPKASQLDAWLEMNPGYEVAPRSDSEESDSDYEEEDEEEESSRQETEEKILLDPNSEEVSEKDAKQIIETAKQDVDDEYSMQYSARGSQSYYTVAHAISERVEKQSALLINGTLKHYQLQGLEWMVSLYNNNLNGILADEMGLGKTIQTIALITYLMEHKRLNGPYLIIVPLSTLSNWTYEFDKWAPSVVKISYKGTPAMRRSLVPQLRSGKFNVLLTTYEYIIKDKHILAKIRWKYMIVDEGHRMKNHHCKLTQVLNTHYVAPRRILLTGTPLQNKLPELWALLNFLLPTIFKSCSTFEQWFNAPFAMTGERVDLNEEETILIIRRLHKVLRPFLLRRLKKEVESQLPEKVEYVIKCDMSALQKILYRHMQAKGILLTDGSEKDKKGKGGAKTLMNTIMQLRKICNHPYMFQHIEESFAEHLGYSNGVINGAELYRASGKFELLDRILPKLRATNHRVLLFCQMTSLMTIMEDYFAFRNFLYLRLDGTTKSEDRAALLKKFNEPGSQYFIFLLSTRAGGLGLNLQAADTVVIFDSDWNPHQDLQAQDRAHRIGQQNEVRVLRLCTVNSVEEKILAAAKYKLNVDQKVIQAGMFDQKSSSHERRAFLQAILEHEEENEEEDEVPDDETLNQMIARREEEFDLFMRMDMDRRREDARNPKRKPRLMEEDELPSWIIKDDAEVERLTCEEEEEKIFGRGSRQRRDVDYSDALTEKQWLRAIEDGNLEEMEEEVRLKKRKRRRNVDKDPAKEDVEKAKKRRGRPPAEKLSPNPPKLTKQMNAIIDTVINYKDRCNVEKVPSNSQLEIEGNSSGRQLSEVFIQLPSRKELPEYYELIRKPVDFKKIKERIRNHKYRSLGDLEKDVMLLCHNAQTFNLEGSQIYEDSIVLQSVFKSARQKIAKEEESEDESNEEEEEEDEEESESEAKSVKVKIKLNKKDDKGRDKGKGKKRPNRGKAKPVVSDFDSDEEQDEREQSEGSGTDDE

Structure (SMILES) | DC50 (SMARCA2 [1]) [nM] | DC50 (SMARCA4) [nM] | DC50 (SMARCA2 [2]) [nM] | Dmax (SMARCA2 [1]) [%] | Dmax (SMARCA2 [2]) [%]
Cc1ncsc1-c1cnc(CNC(=O)[C@@H]2C[C@@H](O)CN2C(=O)[C@@H](NC(=O)[C@H]2CC3(C2)C[C@H](N2CCC(c4ccc(N5C6CCC5CN(c5cc(-c7ccccc7O)nnc5N)C6)cc4)CC2)C3)C(C)(C)C)cn1 (stereo partly drawn) [I-30, (2S,4R)-1-((2S)-2-(6-(4-(4-(3-(3-amino-6-(2-hydroxyphenyl)pyridazin-4-yl)-3,8-diazabicyclo[3.2.1]octan-8-yl)phenyl)piperidin-1-yl)spiro[3.3]heptane-2-carboxamido)-3,3-dimethylbutanoyl)-4-hydroxy-N-((5-(4-methylthiazol-5-yl)pyrazin-2-yl)methyl)pyrrolidine-2-carboxamide] | > 1000 | > 1000 | – | – | –
Cc1ncsc1-c1cnc(CNC(=O)[C@@H]2C[C@@H](O)CN2C(=O)[C@@H](NC(=O)[C@H]2CC3(C2)C[C@H](N2CCC(c4ccc(N5C6CCC5CN(c5cc(-c7ccccc7O)nnc5N)C6)cc4)CC2)C3)C(C)(C)C)nc1 (stereo partly drawn) [I-26, (2S,4R)-1-((2S)-2-(6-(4-(4-(3-(3-amino-6-(2-hydroxyphenyl)pyridazin-4-yl)-3,8-diazabicyclo [3.2.1]octan-8-yl)phenyl)piperidin-1-yl)spiro[3.3]heptane-2-carboxamido)-3,3-dimethylbutanoyl)-4-hydroxy-N-((5-(4-methylthiazol-5-yl)pyrimidin-2-yl)methyl)pyrrolidine-2-carboxamide] | > 1000 | > 1000 | – | – | –
Cc1nccn1-c1ccc(CNC(=O)[C@@H]2C[C@@H](O)CN2C(=O)[C@@H](NC(=O)[C@H]2CC3(C2)C[C@H](N2CCC(c4cnc(N5C6CCC5CN(c5cc(-c7ccccc7O)nnc5N)C6)nc4)CC2)C3)C(C)(C)C)cc1 (stereo partly drawn) [I-34, (2S,4R)-1-((2S)-2-(6-(4-(2-(3-(3-amino-6-(2-hydroxyphenyl)pyridazin-4-yl)-3,8-diazabicyclo[3.2.1]octan-8-yl)pyrimidin-5-yl)piperidin-1-yl)spiro[3.3]heptane-2-carboxamido)-3,3-dimethylbutanoyl)-4-hydroxy-N-(4-(2-methyl-1H-imidazol-1-yl)benzyl-)pyrrolidine-2-carboxamide] | – | > 1000 | 100 to 500 | – | –
Cc1ncsc1-c1ccc(CNC(=O)[C@@H]2C[C@@H](O)CN2C(=O)C(c2cc([C@H]3CC[C@@H](N4CCC(c5cnc(N6C7CCC6CN(c6cc(-c8ccccc8O)nnc6N)C7)nc5)CC4)CC3)no2)C(C)C)cc1 (stereo partly drawn) [I-19, (2S,4R)-1-(2-(3-(4-(4-(2-(3-(3-amino-6-(2-hydroxyphenyl)pyridazin-4-yl)-3,8-diazabicyclo[3.2.1]octan-8-yl)pyrimidin-5-yl)piperidin-1-yl)cyclohexyl)isoxazol-5-yl)-3-methylbutanoyl)-4-hydroxy-N-(4-(4-methylthiazol-5-yl)benzyl)pyrrolidine-2-carboxamide] | < 100 | – | < 100 | > 90 | > 90
Cc1ncsc1-c1ccc(CNC(=O)[C@@H]2C[C@@H](O)CN2C(=O)C(c2cc([C@H]3CC[C@H](N4CCC(c5cnc(N6C7CCC6CN(c6cc(-c8ccccc8O)nnc6N)C7)nc5)CC4)CC3)no2)C(C)C)cc1 (stereo partly drawn) [I-20, (2S,4R)-1-(2-(3-(4-(4-(2-(3-(3-amino-6-(2-hydroxyphenyl)pyridazin-4-yl)-3,8-diazabicyclo[3.2.1]octan-8-yl)pyrimidin-5-yl)piperidin-1-yl)cyclohexyl)isoxazol-5-yl)-3-methylbutanoyl)-4-hydroxy-N-(4-(4-methylthiazol-5-yl)benzyl)pyrrolidine-2-carboxamide] | < 100 | – | – | > 90 | –
Cc1ncsc1-c1ccc(CNC(=O)[C@@H]2C[C@@H](O)CN2C(=O)C(c2cc(O[C@H]3CC[C@H](N4CCC(c5cnc(N6C7CCC6CN(c6cc(-c8ccccc8O)nnc6N)C7)nc5)CC4)CC3)no2)C(C)C)cc1 (stereo partly drawn) [I-17, (2S,4R)-1-(2-(3-(((1r,4S)-4-(4-(2-(3-(3-amino-6-(2-hydroxyphenyl)pyridazin-4-yl)-3,8-diazabicyclo[3.2.1]octan-8-yl)pyrimidin-5-yl)piperidin-1-yl)cyclohexyl)oxy)isoxazol-5-yl)-3-methylbutanoyl)-4-hydroxy-N-(4-(4-methylthiazol-5-yl)benzyl)pyrrolidine-2-carboxamide] | < 100 | – | < 100 | > 90 | > 90
Cc1ncsc1-c1ccc(CNC(=O)[C@@H]2C[C@@H](O)CN2C(=O)C(c2cc(O[C@H]3CC[C@@H](N4CCC(c5cnc(N6C7CCC6CN(c6cc(-c8ccccc8O)nnc6N)C7)nc5)CC4)CC3)no2)C(C)C)cc1 (stereo partly drawn) [I-18, (2S,4R)-1-(2-(3-(((1s,4R)-4-(4-(2-(3-(3-amino-6-(2-hydroxyphenyl)pyridazin-4-yl)-3,8-diazabicyclo[3.2.1]octan-8-yl)pyrimidin-5-yl)piperidin-1-yl)cyclohexyl)oxy)isoxazol-5-yl)-3-methylbutanoyl)-4-hydroxy-N-(4-(4-methylthiazol-5-yl)benzyl)pyrrolidine-2-carboxamide] | < 100 | – | < 100 | > 90 | > 90
Cc1ncsc1-c1ccc(CNC(=O)[C@@H]2C[C@@H](O)CN2C(=O)C(c2cc(N3CCC(CCCN4CCC(c5cnc(N6C7CCC6CN(c6cc(-c8ccccc8O)nnc6N)C7)nc5)CC4)CC3)no2)C(C)C)cc1 (stereo partly drawn) [I-64] | < 100 | – | < 100 | > 90 | > 90
